Key:
Assay type in all cases: functional
BJ [1] = test: hTERT-SEAP (Human telomerase reverse transcriptase-SEAP) activity in immortalized hTERT-BJI at 2.2 uM concentration and level of cell viability determined in MTT assay
BJ [2] = test: Compound was tested for human telomerase reverse transcriptase-SEAP (hTERT-SEAP) activity in immortalized hTERT-BJI at 2.2 uM concentration
BJ [3] = test: Compound was tested for human telomerase reverse transcriptase-SEAP (hTERT-SEAP) activity in immortalized hTERT-BJI at 22 uM concentration
BJ [4] = test: Compound was tested for human telomerase reverse transcriptase-SEAP (hTERT-SEAP) activity in immortalized hTERT-BJI at 220.0 uM concentration
BJ [5] = test: hTERT-SEAP (Human telomerase reverse transcriptase-SEAP) activity in immortalized hTERT-BJI at 22 uM concentration and level of cell viability determined in MTT assay
BJ [6] = test: hTERT-SEAP (Human telomerase reverse transcriptase-SEAP) activity in immortalized hTERT-BJI at 220.0 uM concentration and level of cell viability determined in MTT assay
NCI-H1299 [7] = test: hTERT-SEAP (Human telomerase reverse transcriptase-SEAP) activity in non-small cell lung cancer H1299 cell at 22 uM concentration and level of cell viability determined in MTT assay
NCI-H1299 [8] = test: hTERT-SEAP (Human telomerase reverse transcriptase-SEAP) activity in non-small cell lung cancer H1299 cell at 220.0 uM concentration and level of cell viability determined in MTT assay
NCI-H1299 [9] = test: Compound was tested for human telomerase reverse transcriptase-SEAP (hTERT-SEAP) activity in non-small cell lung cancer H1299 cell at 22 uM concentration
NCI-H1299 [10] = test: Compound was tested for human telomerase reverse transcriptase-SEAP (hTERT-SEAP) activity in non-small cell lung cancer H1299 cell at 220.0 uM concentration
NCI-H1299 [11] = test: Compound was tested for human telomerase reverse transcriptase-SEAP (hTERT-SEAP) activity in non-small cell lung cancer H1299 cell at 2.2 uM concentration
NCI-H1299 [12] = test: hTERT-SEAP (Human telomerase reverse transcriptase-SEAP) activity in non-small cell lung cancer H1299 cell at 2.2 uM concentration and level of cell viability determined in MTT assay
BJ [13] = test: hTERT-SEAP (Human telomerase reverse transcriptase-SEAP) activity in immortalized hTERT-BJI at 21 uM concentration and level of cell viability determined in MTT assay
BJ [14] = test: Compound was tested for human telomerase reverse transcriptase-SEAP (hTERT-SEAP) activity in immortalized hTERT-BJI at 21 uM concentration
BJ [15] = test: Compound was tested for human telomerase reverse transcriptase-SEAP (hTERT-SEAP) activity in immortalized hTERT-BJI at 210.0 uM concentration
BJ [16] = test: hTERT-SEAP (Human telomerase reverse transcriptase-SEAP) activity in immortalized hTERT-BJI at 210.0 uM concentration and level of cell viability determined in MTT assay
NCI-H1299 [17] = test: hTERT-SEAP (Human telomerase reverse transcriptase-SEAP) activity in non-small cell lung cancer H1299 cell at 21 uM concentration and level of cell viability determined in MTT assay
NCI-H1299 [18] = test: hTERT-SEAP (Human telomerase reverse transcriptase-SEAP) activity in non-small cell lung cancer H1299 cell at 210.0 uM concentration and level of cell viability determined in MTT assay
NCI-H1299 [19] = test: Compound was tested for human telomerase reverse transcriptase-SEAP (hTERT-SEAP) activity in non-small cell lung cancer H1299 cell at 21 uM concentration
NCI-H1299 [20] = test: Compound was tested for human telomerase reverse transcriptase-SEAP (hTERT-SEAP) activity in non-small cell lung cancer H1299 cell at 2.1 uM concentration
NCI-H1299 [21] = test: hTERT-SEAP (Human telomerase reverse transcriptase-SEAP) activity in non-small cell lung cancer H1299 cell at 2.1 uM concentration and level of cell viability determined in MTT assay
BJ [22] = test: Compound was tested for human telomerase reverse transcriptase-SEAP (hTERT-SEAP) activity in immortalized hTERT-BJI at 2.1 uM concentration
NCI-H1299 [23] = test: Compound was tested for human telomerase reverse transcriptase-SEAP (hTERT-SEAP) activity in non-small cell lung cancer H1299 cell at 210.0 uM concentration
BJ [24] = test: hTERT-SEAP (Human telomerase reverse transcriptase-SEAP) activity in immortalized hTERT-BJI at 230.0 uM concentration and level of cell viability determined in MTT assay
BJ [25] = test: Compound was tested for human telomerase reverse transcriptase-SEAP (hTERT-SEAP) activity in immortalized hTERT-BJI at 23 uM concentration
BJ [26] = test: Compound was tested for human telomerase reverse transcriptase-SEAP (hTERT-SEAP) activity in immortalized hTERT-BJI at 230.0 uM concentration
BJ [27] = test: hTERT-SEAP (Human telomerase reverse transcriptase-SEAP) activity in immortalized hTERT-BJI at 23 uM concentration and level of cell viability determined in MTT assay
NCI-H1299 [28] = test: hTERT-SEAP (Human telomerase reverse transcriptase-SEAP) activity in non-small cell lung cancer H1299 cell at 23 uM concentration and level of cell viability determined in MTT assay
NCI-H1299 [29] = test: hTERT-SEAP (Human telomerase reverse transcriptase-SEAP) activity in non-small cell lung cancer H1299 cell at 230.0 uM concentration and level of cell viability determined in MTT assay
NCI-H1299 [30] = test: Compound was tested for human telomerase reverse transcriptase-SEAP (hTERT-SEAP) activity in non-small cell lung cancer H1299 cell at 23 uM concentration
NCI-H1299 [31] = test: Compound was tested for human telomerase reverse transcriptase-SEAP (hTERT-SEAP) activity in non-small cell lung cancer H1299 cell at 230.0 uM concentration
NCI-H1299 [32] = test: hTERT-SEAP (Human telomerase reverse transcriptase-SEAP) activity in non-small cell lung cancer H1299 cell at 2.3 uM concentration and level of cell viability determined in MTT assay
NCI-H1299 [33] = test: Compound was tested for human telomerase reverse transcriptase-SEAP (hTERT-SEAP) activity in non-small cell lung cancer H1299 cell at 2.3 uM concentration

Row | Compound | Relative viability (BJ [1]) [%] | Relative SEAP activity (BJ [2]) [%] | Relative SEAP activity (BJ [3]) [%] | Relative SEAP activity (BJ [4]) [%] | Relative viability (BJ [5]) [%] | Relative viability (BJ [6]) [%] | Relative viability (NCI-H1299 [7]) [%] | Relative viability (NCI-H1299 [8]) [%] | Relative SEAP activity (NCI-H1299 [9]) [%] | Relative SEAP activity (NCI-H1299 [10]) [%] | Relative SEAP activity (NCI-H1299 [11]) [%] | Relative viability (NCI-H1299 [12]) [%] | Relative viability (BJ [13]) [%] | Relative SEAP activity (BJ [14]) [%] | Relative SEAP activity (BJ [15]) [%] | Relative viability (BJ [16]) [%] | Relative viability (NCI-H1299 [17]) [%] | Relative viability (NCI-H1299 [18]) [%] | Relative SEAP activity (NCI-H1299 [19]) [%] | Relative SEAP activity (NCI-H1299 [20]) [%] | also measured
1 | O=C1c2cccc(SCCc3ccccc3)c2C(=O)c2cccc(SCCc3ccccc3)c21 | 91 | 119 | 109 | 110 | 54 | 35 | 51 | 27 | 102 | 97 | 108 | 93 | – | – | – | – | – | – | – | – | –
2 | Cc1ccc(C(=O)Oc2cccc3c2C(=O)c2cccc(OC(=O)c4ccc(C)cc4)c2C3=O)cc1 | – | – | – | – | – | – | – | – | – | – | – | – | 98 | 126 | 99 | 56 | 33 | 32 | 95 | 98 | Relative viability (NCI-H1299 [21]): 61%; Relative SEAP activity (BJ [22]): 130%; Relative SEAP activity (NCI-H1299 [23]): 95%
3 | Nc1ccc(Sc2cccc3c2C(=O)c2cccc(Sc4ccc(N)cc4)c2C3=O)cc1 | 86 | 97 | 97 | 26 | 65 | – | 76 | 42 | 95 | 84 | 100 | 103 | – | – | – | – | – | – | – | – | –
4 | O=C1c2cccc(SCc3ccccc3)c2C(=O)c2cccc(SCc3ccccc3)c21 | 121 | 117 | 112 | 87 | 98 | 47 | 44 | 34 | 100 | 100 | 97 | 83 | – | – | – | – | – | – | – | – | –
5 | Nc1cccc(Sc2cccc3c2C(=O)c2cccc(Sc4cccc(N)c4)c2C3=O)c1 | 104 | 118 | 41 | 8 | 9 | 4 | 68 | 32 | 109 | 101 | 106 | 92 | – | – | – | – | – | – | – | – | –
6 | O=C1c2cccc(SCCCCCCO)c2C(=O)c2cccc(SCCCCCCO)c21 | – | – | – | – | – | – | – | – | – | – | – | – | 70 | 128 | 75 | 40 | 94 | 36 | 100 | 110 | Relative viability (NCI-H1299 [21]): 99%; Relative SEAP activity (BJ [22]): 140%; Relative SEAP activity (NCI-H1299 [23]): 68%
7 | Cc1ccc(Sc2cccc3c2C(=O)c2cccc(Sc4ccc(C)cc4)c2C3=O)cc1 | 111 | 132 | 109 | 87 | 77 | 22 | 41 | 25 | 103 | 90 | 117 | 84 | – | – | – | – | – | – | – | – | –
8 | Cc1cccc(C(=O)Oc2cccc3c2C(=O)c2cccc(OC(=O)c4cccc(C)c4)c2C3=O)c1 | – | – | – | – | – | – | – | – | – | – | – | – | 54 | 124 | 86 | 47 | 28 | 29 | 116 | 104 | Relative viability (NCI-H1299 [21]): 26%; Relative SEAP activity (BJ [22]): 141%; Relative SEAP activity (NCI-H1299 [23]): 110%
9 | CCCCCC(=O)Oc1cccc2c1C(=O)c1cccc(OC(=O)CCCCC)c1C2=O | – | – | – | – | – | – | – | – | – | – | – | – | – | – | – | – | – | – | – | – | Relative viability (BJ [24]): 62%; Relative SEAP activity (BJ [25]): 149%; Relative SEAP activity (BJ [26]): 124%; Relative viability (BJ [27]): 98%; Relative viability (NCI-H1299 [28]): 114%; Relative viability (NCI-H1299 [29]): 106%; Relative SEAP activity (NCI-H1299 [30]): 95%; Relative SEAP activity (NCI-H1299 [31]): 95%; Relative viability (NCI-H1299 [32]): 117%; Relative SEAP activity (NCI-H1299 [33]): 91%
10 | O=C(Oc1cccc2c1C(=O)c1cccc(OC(=O)c3ccccc3)c1C2=O)c1ccccc1 | 103 | 137 | 122 | 84 | 87 | 51 | 60 | 33 | 94 | 86 | 88 | 99 | – | – | – | – | – | – | – | – | –
11 | O=C(Cc1ccccc1)Oc1cccc2c1C(=O)c1cccc(OC(=O)Cc3ccccc3)c1C2=O | – | – | – | – | – | – | – | – | – | – | – | – | 97 | 125 | 100 | 64 | 53 | 30 | 101 | 98 | Relative viability (NCI-H1299 [21]): 91%; Relative SEAP activity (BJ [22]): 129%; Relative SEAP activity (NCI-H1299 [23]): 142%
12 | Cc1ccccc1C(=O)Oc1cccc2c1C(=O)c1cccc(OC(=O)c3ccccc3C)c1C2=O | – | – | – | – | – | – | – | – | – | – | – | – | 82 | 120 | 94 | 39 | 36 | 45 | 91 | 97 | Relative viability (NCI-H1299 [21]): 72%; Relative SEAP activity (BJ [22]): 129%; Relative SEAP activity (NCI-H1299 [23]): 90%

— ChEMBL document CHEMBL1144896 (2003)
